We go through three compounds from publication PMC8845381 (BMC Microbiology, 2022).

As a reminder, the IC50 is the concentration that gives 50% inhibition. The term viability denotes a read-out of living cells in per cent, often relative to untreated cells.

Converted amounts (≈) assume the structure as drawn. “And” between values parts separate entries of the source, which are not always exact repeats. Equal values may be shown once. Read-outs that look alike come from different tables or passages of the source. Marks after values point to notes of the source that are not given here.

In data set [1] the test system is L929 cell line. As to the kind of experiment: Cytotoxicity assay (MTT). In kind it is cell-based. Conditions: for Cytotoxicity assay Percent (%): L929, 24 h. Here is the method:
L929 cell line was seeded into 96-well microtiter plates (Nunc, Roskilde, Denmark) in DMEM (100 μL) supplemented with 10% FBS and 1% penicillin–streptomycin solution. Cells then were incubated at 37 °C in a humidity of 95% and 5% CO2 for 24 h. […] After 24 h of incubation time, 10 μL of MTT solution was added to each well. After 3 h of incubation at 37 °C, the supernatant was removed and 100 μL of DMSO was added. Finally, the absorbance at 570 nm was measured by a microtiter plate reader (BioTek ELX800, Winooski, VT, USA) and the viability was calculated by the below formula [21]: Viability%=ODTest/ODControl×100

In data set [2] the test system is human blood. In kind it is cell-based. The following applies: 30 min at 37 °C. Here is the method: In vitro hemolytic activity was done by spectrophotometric method. In this study, the fresh human blood samples obtained from returned unused blood bags in the blood bank (Iranian Blood Transfusion Organization) were used. […] The mixture was incubated for 30 min at 37 °C and then centrifuged at 1500 rpm for 10 min. The free hemoglobin in the supernatant was analyzed by UV–Vis spectrophotometer at 540 nm. The PBS and distilled water (DW) were used as minimal and maximal hemolytic controls.

Data set [3] has as its system L. major amastigotes in J774.A1 macrophages. As to the kind of experiment: Parasite load in macrophage (anti-amastigote activity). In kind it is cell-based, Leishmania major. Conditions: for Number of amastigotes: mean per macrophage. Here is the method:
For the assessment of the parasite load, 2 × 10^5 of J774.A1 macrophages cells were cultured in a 24-well microtiter plate containing a 13 mm-diameter coverslip per well, and supplemented RPMI medium supplemented with 10% FCS and 100 U/ml penicillin and 100 μg/mL streptomycin and incubated at 37 °C in CO2 5% for 24 h. Promastigotes of L. major at the stationary phase were seeded into each well (1:10) and incubated for 24 h and the non-internalized parasites were removed by aspirating the supernatant. […] The number of infected macrophages and the number of amastigotes per macrophage were determined by counting the number of parasites in 100 macrophages in a neubauer chamber.

For data set [4], the system named is Candida albicans. The following applies: cited from earlier work.
Data set [5] is described as follows: Characterization by dynamic light scattering (size, PDI, zeta potential). In kind it is physicochemical. The following applies: DLS. Here is the method: The homogenization followed by the probe ultra-sonication method was performed for preparing the nanoparticles. […] Then, the hot lipid phase was dispersed in the 1/3 aqueous solution containing 500 mg of hydrophilic surfactant (Tween 80), heated at the same temperature, homogenized by high-shear homogenizer at 13,000 rpm for 7 min (D-91126 Schwabach, Heidolph, Germany), and then sonicated by a probe sonicator (Bandelinsonopuls, 3100, Berlin, Germany) at power levels of 3.5 W for 5 min to form a coarse pre-emulsion. The mixture was then dispersed into 2/3 of an ice-cold surfactant solution preserved in an ice bath. The final mixture was sonicated again at power levels of 0.6 W for 10 min while dipped in the ice bath. This cooling phase encouraged the formation of lipid nanoparticles.

The test system of data set [6] is Leishmania major. Put plainly: In vivo assay: lesion size in infected BALB/c mice, topical treatment. The following applies: after 28 days. Here is the method:
This study was performed in accordance with ARRIVE guidelines (https://arriveguidelines.org). Female BALB/c mice (6–7 weeks old) purchased from Razi Rad Industries were used for experimentation and kept in standard boxes under controlled light and temperature conditions. Overall, 1.6 × 10^6 promastigotes, in the stationary phase, were injected subcutaneously in the base of the tail of mice. The mice were divided into 10 groups and five mice were allocated in each group. […] After three weeks, treatment was started when local lesions were apparent. […] Topical treatment was used on each mouse every 28 continuous days. The diameter of lesions was measured weekly before and after treatment by dial micrometer (Starrett Dial indicator, model 25A, USA) and compared with that of untreated lesions. The ulcer size was determined according to the following formula (a: Length and b: width): Lesionsize=a+b/2

The subject of data set [7] is L. major. The following applies: in vitro; cited from earlier work.
Data set [8] relates to L. major promastigotes. Put plainly: Apoptosis assay (Annexin V-FITC/PI flow cytometry). Type of data set: cell-based. The following applies: Leishmania major, 24 h, read-out: viability rates of cells (flow cytometry). Here is the method: They were incubated at 24 °C for 24 h. Then cells were washed twice with PBS and 1 × 10^5 cells were re-suspended in 100 μL binding buffer and incubated with 5 μL of Annexin V-FITC and propidium iodide (PI) as a counterstain for 15 min at room temperature in darkness, according to the manufacturer's instructions (BD Biosciences, San Diego, CA, USA). Finally, the percent of apoptotic and necrotic cells was evaluated by flow cytometry (Becton Dickinson) and data were analyzed using Flowjo software (version 7).

In data set [9] the test system is L. major intracellular amastigotes. The following applies: 10, 50, and 100 µg/mL; cited from earlier work.
Data set [10] concerns nitric oxide (NO) production by infected murine peritoneal macrophages. As to the kind of experiment: Indirect measurement of nitric oxide production (Griess reaction). Type of data set: cell-based. Here is the method:
NO levels were evaluated using Griess reaction and compared to the untreated macrophages. In a 96-well microtiter plate, 2 × 10^5 murine peritoneal macrophages were cultured at 37 °C in 5% CO2 for 4 h to allow cell adhesion. 100 µL of new medium containing promastigotes in stationary phase (10 promastigotes per macrophage) was added. […] After the incubation times, the level of NO was analyzed using cell culture supernatant by an ELISA plate reader at 550 nm.
Background: Griess reagent forms a coloured azo dye with nitrite.

The test system of data set [11] is L. amazonensis. The following applies: in vitro; cited from earlier work.
The subject of data set [12] is L. major promastigotes. Put plainly: In vitro assay: live and dead promastigotes counted after eosin staining. In kind it is cell-based, Leishmania major (Iranian strain MRHO/IR/75/ER). Conditions: for effectiveness (mortality rate of promastigotes) compared with Amphotericin B: P < 0.05. Here is the method: L. major promastigotes, Iranian strain MRHO/IR/75/ER, were provided by the department of parasitology, Tehran University of Medical Sciences, Tehran, Iran and were cultivated in RPMI-1640 medium supplemented with 10% FBS and penicillin–streptomycin solution at 24 °C with frequent passages every three days.
The experiments were done separately for 12, 24, 48, and 72 h in a 96-well microtiter plate. At first, 100 μL RPMI-1640 medium containing 10^5 promastigotes (at log phase) was added to each well. […] Amphotericin B (20 mg/mL) as a positive control was considered in three wells, in a concentration of 12 μM. In another row, 100 µL of medium containing parasites with phosphate buffered saline (PBS) without the drug was added as the negative controls. The plate was incubated at 24 °C for 12, 24, 48, and 72 h.

For data set [13], the system named is L. amazonensis promastigotes. More on the design: method as in PMID 26517558. Conditions: in vitro; cited from earlier work.
[14] abbreviates: 20 µg/mL, 0 h (Before treatment).
Where [15] appears, read: 50 µg/mL, 0 h (Before treatment).
Where [16] appears, read: 100 µg/mL, 0 h (Before treatment).
Where [17] appears, read: 200 µg/mL, 0 h (Before treatment).
The mark [18] stands for this setting: 400 µg/mL, 0 h (Before treatment).

Regarding `C[C@@H]1[C@H](O)[C@@H](C)/C=C/C=C/C=C/C=C/C=C/C=C/C=C/[C@H](O[C@@H]2O[C@H](C)[C@@H](O)[C@H](N)[C@@H]2O)C[C@@H]2O[C@](O)(C[C@@H](O)C[C@@H](O)[C@H](O)CC[C@@H](O)C[C@@H](O)CC(=O)O[C@H]1C)C[C@H](O)[C@H]2C(=O)O` [Amphotericin B, reference compound], the “Cytotoxicity assay Percent (%)” value in [1] (concentration not given) is given as 19.5 ± 0.6%. The “Hemolytic assay Percent (%)” value in data set [2] (concentration not given) is 21.6% and 21.6 ± 5.3%. Besides, the “MQ infectivity (%)” value in data set [3] (setting [14]) is given as 73.4%; in data set [3] (20 µg/mL, 24 h) it was 34.5^* %; in data set [3] (20 µg/mL, 48 h), 42.7^* %. The Number of amastigotes in data set [3] (setting [14]) is reported as 15.7; in data set [3] (20 µg/mL, 24 h), 4.3^*; in data set [3] (20 µg/mL, 48 h), 0.4^**.
In the case of `Oc1ccc(/C=C/c2cc(O)cc(O)c2)cc1` [Resveratrol, 3,5,4' -trihydroxy-trans-stilbene], the “cytotoxicity against the L929 cell line (in words)” value in [1] is “no cytotoxicity”. For the same compound, the “Cytotoxicity assay Percent (%)” value in data set [1] (100 µg/mL) was determined as 8.4 ± 1.6%; in data set [1] (200 µg/mL), 14.8 ± 3.0%; in [1] (400 µg/mL) it was 18.7 ± 4.6%. In addition, the “Hemolytic assay Percent (%)” value in data set [2] (100 µg/mL) was determined as 17.5 ± 2.4%; in data set [2] (200 µg/mL) it was 19.6 ± 3.7%; in data set [2] (400 µg/mL (highest concentration)), 25.2 ± 5.3%. For the same compound, the IC50 in data set [4] is 10 to 20 µg/mL; in data set [7] it was 65.5 µM; in [11], 27 µM; in [12] (Leishmania major, promastigotes of L. major after 12 h) it was 16.2 µg/mL (≈ 71.1 µM). In addition, the average size in data set [5] is on record as 432.7 ± 26 nm. The same compound showed a mean lesion size in [6] (15 mg/kg BW, topical, PBS control 7.5 and 7.2 mm) of 0.0 mm. Further, in [6] (all concentrations, not significant (P > 0.05)), the “anti-leishmanial activity (lesion size) compared with Amphotericin B” value is listed as “better anti-leishmanial activity”. The viability at 200 µg/mL in data set [8] (200 µg/mL) was determined as 87.9%. The viability at 400 µg/mL in [8] (400 µg/mL) amounted to 71.4%. Besides, the “effect on intracellular amastigote” value in data set [9] is on record as “resistant”. In addition, the “MQ infectivity (%)” value in [3] (setting [15]) is listed as 76.4%; in data set [3] (50 µg/mL, 24 h), 68.4^* %; in data set [3] (50 µg/mL, 48 h), 55.3%; in data set [3] (setting [16]), 81.0%; in [3] (100 µg/mL, 24 h), 56.2^* %; in [3] (100 µg/mL, 48 h) it was 41.9^* %. Also, the “MQ infectivity (%)” value is on record as 78.3% in data set [3] (setting [17]); 42.6^* % in data set [3] (200 µg/mL, 24 h); 35.5^* % in [3] (200 µg/mL, 48 h); 79.6% in data set [3] (setting [18]); 31.4^* % in data set [3] (400 µg/mL, 24 h); 25.8^* % in data set [3] (400 µg/mL, 48 h). Moreover, the Number of amastigotes in data set [3] (setting [15]) is on record as 17.6; in data set [3] (50 µg/mL, 24 h) it was 12.5; in data set [3] (50 µg/mL, 48 h), 9.8^*; in data set [3] (setting [16]), 18.3; in data set [3] (100 µg/mL, 24 h) it was 12.1; in data set [3] (100 µg/mL, 48 h) it was 9.5^*. Also, the Number of amastigotes is 18.0 in data set [3] (setting [17]); 6.7^* in data set [3] (200 µg/mL, 24 h); 2.4^* in data set [3] (200 µg/mL, 48 h); 16.2 in [3] (setting [18]); 3.3^* in [3] (400 µg/mL, 24 h); 0.5^** in [3] (400 µg/mL, 48 h). Besides, the “NO production by macrophages compared with Amphotericin B” value in data set [10] (resveratrol 50 and 100 µg/mL, RNE 50, 100, 200, and 400 µg/mL, P < 0.05) is given as “decreased the NO production even more than Amphotericin B”. The “production of NO compared with the control group” value in [10] (resveratrol ≥ 200 µg/mL, 24 h, control PBS 7.23 μM, DMSO 6.73 μM) is recorded as “decreased the production of NO”. In data set [12] (100 µg/mL, 48 h, 'In this study' (sentence follows description of ref 17)), this compound displayed a promastigotes eliminated of 100%. The “effectiveness (mortality rate of promastigotes) compared with Amphotericin B” value in [12] (after 12 h, 50, 100, 200, and 400 µg/mL) is “significantly more effective than Amphotericin B”; in [12] (after 24 h, all concentrations), “significantly more effective than Amphotericin B”. Also, the “anti-leishmanial activity compared with positive control (Amphotericin B)” value in data set [12] (after 48 h, resveratrol 50-400 µg/mL, RNE 100-400 µg/mL, not significant (P > 0.05)) is “better anti-leishmanial activity than positive control”.
In the case of `Oc1cc(O)cc(/C=C/c2ccc(O)cc2O)c1` [oxyresveratrol], the IC50 in [13] is 65 µg/mL (≈ 266 µM).
